The assay has as its target T1, unphosphorylated VEGF-R2Δ50 (FLVK) (Homo sapiens, UniProt P35968, DEL940-989/E990V).
T1 construct: VEGF-R2Δ50 contains residues 806-939 and 990-1171; made in house; host or cells: baculovirus/insect cells
Put plainly: VEGF-R2 coupled spectrophotometric assay, unphosphorylated enzyme (FLVK). It counts as biochemical. Conditions: Table 3; for Ki: some entries 'Slow binder'; for inhibition at 0.05 µM: at 50 nM. The source says:
VEGF-R2 Construct for Assay: This construct determines the ability of a test compound to inhibit tyrosine kinase activity. A construct (VEGF-R2Δ50) of the cytosolic domain of human vascular endothelial growth factor receptor 2 (VEGF-R2) lacking the 50 central residues of the 68 residues of the kinase insert domain was expressed in a baculovirus/insect cell system. Of the 1356 residues of full-length VEGF-R2, VEGF-R2Δ50 contains residues 806-939 and 990-1171, and also one point mutation (E990V) within the kinase insert domain relative to wild-type VEGF-R2. Autophosphorylation of the purified construct was performed by incubation of the enzyme at a concentration of 4 μM in the presence of 3 mM ATP and 40 mM MgCl2 in 100 mM Hepes, pH 7.5, containing 5% glycerol and 5 mM DTT, at 4° C. for 2 h. […] See Parast et al., Biochemistry, 37, 16788-16801 (1998).
The production of ADP from ATP that accompanies phosphoryl transfer was coupled to oxidation of NADH using phosphoenolpyruvate (PEP) and a system having pyruvate kinase (PK) and lactic dehydrogenase (LDH). The oxidation of NADH was monitored by following the decrease of absorbance at 340 nm (e340=6.22 cm^−1 mM^−1) using a Beckman DU 650 spectrophotometer. Assay conditions for phosphorylated VEGF-R2Δ50 (indicated as FLVK-P in the tables below) were the following: 1 mM PEP; 250 μM NADH; 50 units of LDH/mL; 20 units of PK/mL; 5 mM DTT; 5.1 mM poly(E4Y1); 1 mM ATP; and 25 mM MgCl2 in 200 mM Hepes, pH 7.5. Assay conditions for unphosphorylated VEGF-R2Δ50 (indicated as FLVK in the tables) were the following: 1 mM PEP; 250 μM NADH; 50 units of LDH/mL; 20 units of PK/mL; 5 mM DTT; 20 mM poly(E4Y1); 3 mM ATP; and 60 mM MgCl2 and 2 mM MnCl2 in 200 mM Hepes, pH 7.5. Assays were initiated with 5 to 40 nM of enzyme. Ki values were determined by measuring enzyme activity in the presence of varying concentrations of test compounds. The data were analyzed using Enzyme Kinetic and Kaleidagraph software.

Ki and inhibition data for 15 compounds are collected here from patent US6620828B2, “Thiazole compounds and pharmaceutical compositions for inhibiting protein kinases and methods for their use” (Agouron Pharmaceuticals, Inc., priority 1999, dated 2003).

As a reminder, the Ki is a dissociation constant, usually derived from enzyme kinetics or from competition with a known ligand. In general, inhibition refers to how much of the control response was suppressed.

T1 sequence (P35968 with tags, fused parts or gaps DEL940-989/E990V limits assumed): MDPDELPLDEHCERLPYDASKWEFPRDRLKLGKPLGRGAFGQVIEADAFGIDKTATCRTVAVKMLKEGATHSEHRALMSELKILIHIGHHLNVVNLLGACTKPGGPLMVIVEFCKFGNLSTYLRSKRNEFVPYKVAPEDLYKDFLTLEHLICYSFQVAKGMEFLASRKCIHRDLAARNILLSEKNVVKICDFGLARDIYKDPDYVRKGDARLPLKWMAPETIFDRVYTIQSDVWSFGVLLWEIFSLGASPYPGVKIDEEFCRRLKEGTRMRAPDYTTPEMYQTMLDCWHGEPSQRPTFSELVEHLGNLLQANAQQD

As for `COc1cccc(C(=O)Nc2cc(-c3noc(-c4sc(Nc5ccc(N6CCN(C)CC6)nc5)nc4N)n3)c(C)cc2Cl)c1` [B(28)], the affinity corresponds to a Ki of 3 nM.

As to `CC[C@@H](CO)NC(=O)Nc1nc(N)c(-c2nc(-c3cc(NC(=O)c4cccc(OC)c4)c(F)cc3F)cs2)s1` [O(22), N-(5-{4′-Amino-2′-[3-((S)-1-hydroxymethyl-propyl)-ureido]-[2,5′]bithiazolyl-4-yl}-2,4-difluoro-phenyl)-3-methoxy-benzamide], the Ki stood at 1.5 nM. In the case of `COc1cc(Nc2nc(N)c(-c3nc(-c4cc(N)ccc4F)no3)s2)cc(OC)c1OC` [C(4), 3-[3-amino-6-fluorophenyl]-5-[2-[(3,4,5-trimethoxyphenyl)amino]-4-amino-5-thiazolyl]-1,2,4-oxadiazole], the inhibition at 0.05 µM amounted to 3%. Same read-out and setting: under `COc1cccc(C(=O)Nc2cc(-c3noc(-c4sc(NC(C)C)nc4N)n3)c(F)cc2F)c1` [B(19), N-{5-[5-(4-Amino-2-isopropylamino-thiazol-5-yl)-[1,2,4]oxadiazol-3-yl]-2,4-difluoro-phenyl}-3-methoxy-benzamide] stands 36%; under `COc1cccc(C(=O)Nc2cc(-c3csc(-c4sc(NC(=O)NCC5CCCCC5)nc4N)n3)c(F)cc2F)c1` [O(25), N-{5-[4′-Amino-2′-(3-cyclohexylmethyl-ureido)-[2,5′]bithiazolyl-4-yl]-2,4-difluoro-phenyl}-3-methoxy-benzamide], 28%. In the case of `Cc1ccc(NC(=O)OC(C)(C)C)cc1-c1noc(-c2sc(Nc3ccc4nc[nH]c4c3)nc2N)n1` [B(24)], the Ki is 2.1 nM. `COc1cccc(C(=O)Nc2cc(-c3csc(-c4sc(NC(=O)NC[C@@H]5CCCO5)nc4N)n3)c(F)cc2F)c1` [O(23), N-[5-(4′-Amino-2′-{3-[(S)-1-(tetrahydro-furan-2-yl)methyl]-ureido}-[2,5′]bithiazolyl-4-yl)-2,4-difluoro-phenyl]-3-methoxy-benzamide] came in with an inhibition at 0.05 µM of 29%.

With `COc1cccc(C(=O)Nc2cc(-c3noc(-c4sc(NC(=O)NCCOCCO)nc4N)n3)c(F)cc2F)c1` [O(6), N-{5-[5-(4-Amino-2-{3-[2-(2-hydroxy-ethoxy)-ethyl]-ureido}-thiazol-5-yl)-[1,2,4]oxadiazol-3-yl]-2,4-difluoro-phenyl}-3-methoxy-benzamide], affinity was put at a Ki of 0.15 nM. `Cc1cccc(C(=O)Nc2cccc(-c3noc(-c4sc(NS(C)(=O)=O)nc4N)n3)c2)c1` [F(15), N-{3-[5-(4-Amino-2-methanesulfonylamino-thiazol-5-yl)-[1,2,4]oxadiazol-3-yl]-phenyl}-3-methyl-benzamide] came in with an inhibition at 0.05 µM of 5%. The compound `COc1ccc(NC(=O)OC(C)(C)C)cc1-c1noc(-c2sc(Nc3cc(OC)c(OC)c(OC)c3)nc2N)n1` [B(25)] yielded a Ki of 29 nM. In turn, `COc1cccc(C(=O)Nc2cc(-c3csc(-c4sc(NC(=O)NC[C@H]5CCCO5)nc4N)n3)c(F)cc2F)c1` [O(24), N-[5-(4′-Amino-2′-{3-[(R)-1-(tetrahydro-furan-2-yl)methyl]-ureido}-[2,5′]bithiazolyl-4-yl)-2,4-difluoro-phenyl]-3-methoxy-benzamide] displayed an inhibition at 0.05 µM of 22%. The compound `CNC(=O)Nc1nc(N)c(-c2nc(-c3cccc(NC(=O)c4cccc(OC)c4)c3)c(C)s2)s1` [O(31), N-{3-[4′-Amino-5-methyl-2′-(3-methyl-ureido)-[2,5′]bithiazolyl-4-yl]-phenyl}-3-methoxy-benzamide] yielded a Ki of 0.23 nM. The same measure, in the same setting: the result for `CCn1nc(C)cc1C(=O)Nc1ccc(C)c(-c2noc(-c3sc(Nc4ccccc4)nc3N)n2)c1` [B(26)] reads 2.8 nM; that for `COc1cccc(C(=O)Nc2cc(-c3csc(-c4sc(NC(=O)NCCN5CCCC5)nc4N)n3)c(F)cc2F)c1` [O(27), N-(5-{4′-Amino-2′-[3-(2-pyrrolidin-1-yl-ethyl)-ureido]-[2,5′]bithiazolyl-4-yl}-2,4-difluoro-phenyl)-3-methoxy-benzamide], 1.7 nM. Consider `COc1cc(Nc2nc(N)c(-c3nc(-c4cccc(C(=O)O)c4)no3)s2)cc(OC)c1OC` [B(43)], for which the inhibition at 0.05 µM came to 11%.
